Test results reported in patent US20250320203A1, “4-(3H-PYRAZOLO[4,3-F]QUINOLIN-7-YL)-N-(2-(DIMETHYLAMINO)ETHYL)BENZAMIDE- OR HYDROXAMIC ACID COMPOUNDS, COMPOSITIONS, AND METHODS OF USE” (Purdue Research Foundation, priority 2022, published 2025).

Legend:
[1] = system: DNA; assay: DNA intercalation assay; conditions: doses from 1 mM to 10 nM
Protocol: FIG. 16 is a graph of data from a DNA intercalation assay. […] Data was fitted to a non-linear regression equation using GraphPad Prism 9.0 software (each data point represents the mean of triplicates).
To move compounds forward for further development, DNA intercalation assays were conducted to eliminate compounds with high affinity for DNA.

[2] = target: T1, FLT3-ITD (Homo sapiens, UniProt P36888); assay: FLT3-ITD enzyme inhibition, 10-dose IC50 (Reaction Biology); assay type: biochemical; conditions: 10 μM ATP
T1 sequence (P36888 1-993): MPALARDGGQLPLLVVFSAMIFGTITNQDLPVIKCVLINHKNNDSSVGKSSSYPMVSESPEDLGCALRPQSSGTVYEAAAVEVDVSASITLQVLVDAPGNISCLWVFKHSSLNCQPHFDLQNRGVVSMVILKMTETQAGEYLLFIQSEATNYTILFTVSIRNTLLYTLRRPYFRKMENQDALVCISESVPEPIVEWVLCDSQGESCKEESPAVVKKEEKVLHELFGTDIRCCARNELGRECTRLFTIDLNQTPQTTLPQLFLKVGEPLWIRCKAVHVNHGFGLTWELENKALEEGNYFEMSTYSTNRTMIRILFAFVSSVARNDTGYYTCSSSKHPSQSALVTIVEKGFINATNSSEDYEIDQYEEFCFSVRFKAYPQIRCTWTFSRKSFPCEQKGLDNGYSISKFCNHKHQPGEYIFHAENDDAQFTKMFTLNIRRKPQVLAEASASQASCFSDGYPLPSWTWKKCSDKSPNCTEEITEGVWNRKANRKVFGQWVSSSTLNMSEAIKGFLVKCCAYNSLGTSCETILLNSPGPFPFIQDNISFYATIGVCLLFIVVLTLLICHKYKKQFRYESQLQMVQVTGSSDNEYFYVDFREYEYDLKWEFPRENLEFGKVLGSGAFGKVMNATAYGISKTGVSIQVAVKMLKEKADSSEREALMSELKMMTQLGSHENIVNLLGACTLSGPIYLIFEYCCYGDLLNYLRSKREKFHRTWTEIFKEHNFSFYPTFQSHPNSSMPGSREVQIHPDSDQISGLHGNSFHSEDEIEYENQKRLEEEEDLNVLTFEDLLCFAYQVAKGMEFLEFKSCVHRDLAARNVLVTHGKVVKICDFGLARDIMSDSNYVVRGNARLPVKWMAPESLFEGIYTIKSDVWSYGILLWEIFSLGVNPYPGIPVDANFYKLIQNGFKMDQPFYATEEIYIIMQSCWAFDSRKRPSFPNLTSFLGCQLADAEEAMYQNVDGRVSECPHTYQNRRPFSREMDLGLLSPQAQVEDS

[3] = system: Molm-14 cells (FLT3-ITD); assay: AML cell line growth inhibition (CellTiter-Blue), 50 nM; assay type: cell-based; conditions: Homo sapiens, 50 nM inhibitor conc., means of triplicates, read-out: Percent Inhibition (%) Molm-14 growth
Protocol: With the amide kinase inhibitor library established, kinase inhibition and AML cell line (Molm-14, which harbors FLT3-ITD) growth inhibition were analyzed (Table 1). More specifically, Haspin and FLT3 inhibition were evaluated in-house via ADP Glo Kinase Assay (Promega, Madison, WI). […] Values reported are means of triplicates.
(§1) More specifically, cells were cultured to confluence in RPMI medium supplemented with 10% fetal bovine serum and 1× Penicillin-Streptomycin (Gibco™). Cells were plated at 5,000 cells/well in 96 well plates. After 24-hour incubation at 37° C. in a 5% CO2 incubator, compounds diluted in the same media were added to the indicated final concentration and allowed to incubate at 37° C. in a 5% CO2 incubator for 72 hours. Viability was determined using CellTiter-Blue® Cell Viability Assay (Promega, Madison, WI) with absorbance readings at 570 nm performed on a Cytation™ 5 Cell Imaging Multi-Mode Reader (BioTek) 3 hours after addition. Appropriate vehicle and cell-free controls were included. GI50 readings were confirmed by two scientists on two separate days.

[4] = system: phosphorylated FLT3; assay: Western blot, FLT3 target engagement in Molm-14 cells; assay type: cell-based, human; conditions: Molm-14 cells treated for 2 hours
Protocol: (§2) Acute myeloid leukemia cells (Molm-14) were incubated with various concentrations of compound as specified. Cells were collected and lysed, and protein concentrations were quantified relative to BSA standards. After protein denaturation, proteins were separated via SDS-PAGE electrophoresis and transferred to NC membranes. After blocking, overnight incubation with specific primary antibodies, and room temperature incubation for 2 hours with peroxidase-conjugated secondary antibodies, peroxidase activity was detected with SuperSignal West Pico reagents (Thermo Scientific) using a CCD camera LAS-4000 (Fujifilm). Bands were normalized using housekeeping gene, Actin. Values reported represent the means of triplicates and error bars represent SD. All specific antibodies were purchased from Cell Signaling.
Additionally, FLT3 target engagement in Molm-14 cells was evaluated to confirm the FLT3 inhibition seen in the preliminary kinase screen of Example 4 (Table 1). Cells were treated for 2 hours, harvested, and subsequently analyzed.

[5] = system: histone H3 (Thr3) phosphorylation by haspin; assay: Western blot, histone H3 (Thr3) phosphorylation by haspin in Molm-14 cells; assay type: cell-based, human; conditions: 24 hours, HSK205 5, 20 or 100 nM, gilteritinib 100 nM
Protocol: Whether Compound HSK205 does indeed inhibit haspin in AML cells was then evaluated, and immunoblotting was performed to confirm inhibition of histone H3 (Thr3)phosphorylation by haspin (FIG. 13A). […] The samples were subsequently analyzed for the phosphorylation of histone H3 (Thr3).
as §2

[6] = system: Molm-14-ITD-F691L; assay: Cell viability GI50, Molm-14-ITD-F691L; assay type: cell-based; conditions: Homo sapiens; 72 hours
Protocol: as §1
Scholl et al. (2020), supra. Accordingly, Compound HSK205 was evaluated against Molm-14 cell lines that harbor resistant mutations commonly found in the clinic, FLT3-ITD-D835Y and F691L (FIG. 15).

Question: For `Cc1c[nH]c(CNC(=O)c2ccc(-c3nc4ccc5[nH]ncc5c4c4c3CCCC4)cc2)n1` [Compound HSK205], which DNA intercalation [1] is on record?
Answer: did not intercalate into DNA

Question: What about the IC50 [2] of the same molecule?
Answer: < 0.5 nM

Question: What about the inhibition at 0.05 µM [3] of the same molecule?
Answer: 96%

Question: What about the “phosphorylated FLT3” value [4] of the same molecule?
Answer: reduction of phosphorylated FLT3

Question: And the “phosphorylation of histone H3 (Thr3)” value [5]?
Answer: effective in reducing phosphyorlation of histone H3 (Thr3)

Question: And the GI50 [6]?
Answer: 2.2 nM
